# Earlier results, collected in article PMC8538057, “Direct Delivery of ANA-TA9, a Peptide Capable of Aβ Hydrolysis, to the Brain by Intranasal Administration” (Pharmaceutics, 2021).
# How the values were obtained:
# aged mice = conditions: i.n. administration; cited from earlier work
# Description: (§1) Nasal drug administration has several advantages over oral or i.v. administration, which include noninvasiveness, self-administration, short onset of action, and higher bioavailability due to the avoidance of hepatic first-pass metabolism. Therefore, interest has grown in i.n. drug administration as a route for the application of drugs, particularly peptides, for systemic delivery. In addition to the above advantages, active pharmaceutical ingredients applied to the nasal cavity can undergo not only systemic absorption but, also, direct delivery to the brain [33, 34, 35, 36]. The brain up ...
# [1] = system: normal and cognitively impaired rats; conditions: i.n. administration; cited from earlier work
# Description: as §1
# Aβ42 = conditions: also three Aβ fragment peptides, particularly Aβ11–29; cited from earlier work
# Description: Recently, we reported the proteolytic activity of the shorter synthetic peptides JAL-TA9 (YKGSGFRMI) and ANA-TA9 (SKGQAYRMI), derived from the Box A region of the Tob1 and ANA/BTG3 proteins. These peptides cleave Aβ42 and three Aβ fragment peptides, particularly Aβ11–29 originating from the central region, which is considered the core region of Aβ42 aggregation/oligomerization. We gave these peptides the general name Catalytide. Catalytides such as JAL-TA9 and ANA-TA9 are attractive candidate peptide drugs for a novel strategy for preventing and treating AD.
Sequence,effect on anxiety (aged mice),effect on memory function [1],cleavage of Aβ42 (proteolytic activity) (Aβ42)
NAPVSIPQ,decreases anxiety,improves memory function,–
"YKGSGFRMI [JAL-TA9, Catalytide (catalytic peptide) … derived from the Box A region of Tob1 protein, cleaves Aβ42]",–,–,cleave Aβ42
